# Laboratory results: US9738634B2, “Heterocyclic amide compound and herbicide” (SYNGENTA PARTICIPATIONS AG, priority 2013, dated 2017)
# How the values were obtained:
# Type in all cases: in vivo
# Details in all cases: treatment dosage 320 g/ha
# barnyard grass [1] = assay: Test Example 1: weedkilling efficacy, preemergent weed treatment in the submerged state; A: barnyard grass
# Summary of the method: (§1)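 Alluvial soil in Wagner pots flooded to 4 cm; barnyard grass, bulrush and oval-leafed pondweed seeds sown, then 2.5-leaf rice seedlings transplanted. Same day, emulsified compound diluted in water to set g/ha dosages and applied to water surface; greenhouse 25–30 °C, effect scored by criteria after 3 weeks.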
# bulrush [2] = assay: Test Example 1: weedkilling efficacy, preemergent weed treatment in the submerged state; B: bulrush
# Summary of the method: as §1
# oval-leafed pondweed [3] = assay: Test Example 1: weedkilling efficacy, preemergent weed treatment in the submerged state; C: oval-leafed pondweed
# Summary of the method: as §1
# transplanted rice = assay: Test Example 1: preemergent weed treatment in the submerged state, effect on crop; a: transplanted rice
# Summary of the method: as §1
# barnyard grass [4] = assay: Test Example 2: weedkilling efficacy, growth period weed treatment in the submerged state; A: barnyard grass
# Summary of the method: (§2)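 First, alluvial soil in pots is flooded to 4 cm and mixed seed is sown. Next, plants grow in a greenhouse at 25 to 30° C until the 1-2 leaf stage. Then diluted emulsion is applied onto the water surface at the given g/ha rate, and injury is assessed after 3 weeks.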
# bulrush [5] = assay: Test Example 2: weedkilling efficacy, growth period weed treatment in the submerged state; B: bulrush
# Summary of the method: as §2
# oval-leafed pondweed [6] = assay: Test Example 2: weedkilling efficacy, growth period weed treatment in the submerged state; C: oval-leafed pondweed
# Summary of the method: as §2
# crabgrass [7] = assay: Test Example 3: weedkilling efficacy through soil treatment; D: crabgrass
# Summary of the method: (§3)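 Crop and weed responses were judged three weeks after a uniform surface spray of the water-diluted emulsion at the given g/ha rate. Seeds sat beneath about 1.5 cm of sterilized diluvial soil, and boxes stood in a greenhouse at 25 to 30° C.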
# green foxtail [8] = assay: Test Example 3: weedkilling efficacy through soil treatment; E: green foxtail
# Summary of the method: as §3
# barnyard grass [9] = assay: Test Example 3: weedkilling efficacy through soil treatment; F: barnyard grass
# Summary of the method: as §3
# wild oat [10] = assay: Test Example 3: weedkilling efficacy through soil treatment; G: wild oat
# Summary of the method: as §3
# black-grass [11] = assay: Test Example 3: weedkilling efficacy through soil treatment; H: black-grass
# Summary of the method: as §3
# Italian ryegrass [12] = assay: Test Example 3: weedkilling efficacy through soil treatment; I: Italian ryegrass
# Summary of the method: as §3
# common wind-grass [13] = assay: Test Example 3: weedkilling efficacy through soil treatment; J: common wind-grass
# Summary of the method: as §3
# Indian mallow [14] = assay: Test Example 3: weedkilling efficacy through soil treatment; K: Indian mallow
# Summary of the method: as §3
# redroot pigweed [15] = assay: Test Example 3: weedkilling efficacy through soil treatment; L: redroot pigweed
# Summary of the method: as §3
# fig-leafed goosefoot [16] = assay: Test Example 3: weedkilling efficacy through soil treatment; M: fig-leafed goosefoot
# Summary of the method: as §3
# chickweed [17] = assay: Test Example 3: weedkilling efficacy through soil treatment; N: chickweed
# Summary of the method: as §3
# directly sown rice [18] = assay: Test Example 3: soil treatment, effect on crop; b: directly sown rice
# Summary of the method: as §3
# corn [19] = assay: Test Example 3: soil treatment, effect on crop; c: corn
# Summary of the method: as §3
# soybean [20] = assay: Test Example 3: soil treatment, effect on crop; d: soybean
# Summary of the method: as §3
# wheat [21] = assay: Test Example 3: soil treatment, effect on crop; e: wheat
# Summary of the method: as §3
# rapeseed [22] = assay: Test Example 3: soil treatment, effect on crop; g: rapeseed
# Summary of the method: as §3
# crabgrass [23] = assay: Test Example 4: weedkilling efficacy by foliar treatment; D: crabgrass
# Summary of the method: (§4)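 Seeds are spot-sown into sterilized diluvial soil and covered with about 1.5 cm of soil. After 14 days' greenhouse growth at 25 to 30° C, plants are sprayed on stems and leaves with diluted emulsion at the stated g/ha rate, then scored at 3 weeks.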
# green foxtail [24] = assay: Test Example 4: weedkilling efficacy by foliar treatment; E: green foxtail
# Summary of the method: as §4
# barnyard grass [25] = assay: Test Example 4: weedkilling efficacy by foliar treatment; F: barnyard grass
# Method: (§5) Testing of Weedkilling Efficacy by Foliar Treatment
# (§6) Sterilized diluvial soil was introduced into 21 cm long, 13 cm wide, 7 cm deep plastic boxes, and seeds of crabgrass, green foxtail, barnyard grass, wild oat, black-grass, Italian ryegrass, common wind-grass, Indian mallow, redroot pigweed, fig-leafed goosefoot, chickweed, catchweed, birds-eye speedwell, corn, soybean, rice, wheat, beet and rapeseed were each spot-sown, and covered with about 1.5 cm of soil, then the plants were grown in a greenhouse at 25 to 30° C.
# (§7) After they had grown for 14 days, emulsions of compounds of the present invention prepared according to compounding example 2 were diluted with water to give the specified dosages, and applied uniformly onto the stem and leaf parts with a small sprayer. 3 weeks after the pesticide treatment the effect on each type of plant was investigated on the basis of the assessment criteria of test example 1.
# (§8) A: barnyard grass, B: bulrush, C: oval-leafed pondweed, D: crabgrass, E: green foxtail, F: barnyard grass, G: wild oat, H: black-grass, I: Italian ryegrass, J: common wind-grass, K: Indian mallow, L: redroot pigweed, M: fig-leafed goosefoot, N: chickweed, O: catchweed, p: birds-eye speedwell, a: transplanted rice, b: directly sown rice, c: corn, d: soybean, e: wheat, f: beet, g: rapeseed
# (§9) Further, pesticide dosage (g/ha) indicates the concentration regulated such that treatment was with only the stated number of grams (g), when calculated per hectare (ha).
# wild oat [26] = assay: Test Example 4: weedkilling efficacy by foliar treatment; G: wild oat
# Summary of the method: as §4
# black-grass [27] = assay: Test Example 4: weedkilling efficacy by foliar treatment; H: black-grass
# Summary of the method: as §4
# Italian ryegrass [28] = assay: Test Example 4: weedkilling efficacy by foliar treatment; I: Italian ryegrass
# Summary of the method: as §4
# common wind-grass [29] = assay: Test Example 4: weedkilling efficacy by foliar treatment; J: common wind-grass
# Method: as §5, §6, §7, §8, §9
# Indian mallow [30] = assay: Test Example 4: weedkilling efficacy by foliar treatment; K: Indian mallow
# Summary of the method: as §4
# redroot pigweed [31] = assay: Test Example 4: weedkilling efficacy by foliar treatment; L: redroot pigweed
# Summary of the method: as §4
# fig-leafed goosefoot [32] = assay: Test Example 4: weedkilling efficacy by foliar treatment; M: fig-leafed goosefoot
# Summary of the method: as §4
# chickweed [33] = assay: Test Example 4: weedkilling efficacy by foliar treatment; N: chickweed
# Summary of the method: as §4
# catchweed = assay: Test Example 4: weedkilling efficacy by foliar treatment; O: catchweed
# Summary of the method: as §4
# directly sown rice [34] = assay: Test Example 4: foliar treatment, effect on crop; b: directly sown rice
# Summary of the method: as §4
# corn [35] = assay: Test Example 4: foliar treatment, effect on crop; c: corn
# Summary of the method: as §4
# soybean [36] = assay: Test Example 4: foliar treatment, effect on crop; d: soybean
# Summary of the method: as §4
# wheat [37] = assay: Test Example 4: foliar treatment, effect on crop; e: wheat
# Summary of the method: as §4
# beet = assay: Test Example 4: foliar treatment, effect on crop; f: beet
# Summary of the method: as §4
# rapeseed [38] = assay: Test Example 4: foliar treatment, effect on crop; g: rapeseed
# Method: as §5, §6, §7, §8, §9
compound,measurement,setting,value
CC1=C(c2cccnc2F)C(=O)N(C(C)(C)C(=O)Nc2cc(C(F)(F)F)cc(Cl)n2)CO1 [B-2-16],A (barnyard grass) weedkilling efficacy grade,barnyard grass [1],"5 (weed kill ratio 90% or more, (practically complete withering))"
same,B (bulrush) weedkilling efficacy grade,bulrush [2],"5 (weed kill ratio 90% or more, (practically complete withering))"
same,C (oval-leafed pondweed) weedkilling efficacy grade,oval-leafed pondweed [3],"5 (weed kill ratio 90% or more, (practically complete withering))"
same,a (transplanted rice) effect on crop grade,transplanted rice,"4 (weed kill ratio 70% or more, less than 90%)"
same,A (barnyard grass) weedkilling efficacy grade,barnyard grass [4],"5 (weed kill ratio 90% or more, (practically complete withering))"
same,B (bulrush) weedkilling efficacy grade,bulrush [5],"5 (weed kill ratio 90% or more, (practically complete withering))"
same,C (oval-leafed pondweed) weedkilling efficacy grade,oval-leafed pondweed [6],"5 (weed kill ratio 90% or more, (practically complete withering))"
same,D (crabgrass) weedkilling efficacy grade,crabgrass [7],"5 (weed kill ratio 90% or more, (practically complete withering))"
same,E (green foxtail) weedkilling efficacy grade,green foxtail [8],"5 (weed kill ratio 90% or more, (practically complete withering))"
same,F (barnyard grass) weedkilling efficacy grade,barnyard grass [9],"5 (weed kill ratio 90% or more, (practically complete withering))"
same,G (wild oat) weedkilling efficacy grade,wild oat [10],"5 (weed kill ratio 90% or more, (practically complete withering))"
same,H (black-grass) weedkilling efficacy grade,black-grass [11],"5 (weed kill ratio 90% or more, (practically complete withering))"
same,I (Italian ryegrass) weedkilling efficacy grade,Italian ryegrass [12],"5 (weed kill ratio 90% or more, (practically complete withering))"
same,J (common wind-grass) weedkilling efficacy grade,common wind-grass [13],"5 (weed kill ratio 90% or more, (practically complete withering))"
same,K (Indian mallow) weedkilling efficacy grade,Indian mallow [14],"2 (weed kill ratio 20% or more, less than 40%)"
same,L (redroot pigweed) weedkilling efficacy grade,redroot pigweed [15],0 (weed kill ratio 5% or less (practically no effect))
same,M (fig-leafed goosefoot) weedkilling efficacy grade,fig-leafed goosefoot [16],"4 (weed kill ratio 70% or more, less than 90%)"
same,N (chickweed) weedkilling efficacy grade,chickweed [17],"4 (weed kill ratio 70% or more, less than 90%)"
same,b (directly sown rice) effect on crop grade,directly sown rice [18],"5 (weed kill ratio 90% or more, (practically complete withering))"
same,c (corn) effect on crop grade,corn [19],"1 (weed kill ratio 5% or more, less than 20%)"
same,d (soybean) effect on crop grade,soybean [20],"1 (weed kill ratio 5% or more, less than 20%)"
same,e (wheat) effect on crop grade,wheat [21],"1 (weed kill ratio 5% or more, less than 20%)"
same,g (rapeseed) effect on crop grade,rapeseed [22],"3 (weed kill ratio 40% or more, less than 70%)"
same,D (crabgrass) weedkilling efficacy grade,crabgrass [23],"5 (weed kill ratio 90% or more, (practically complete withering))"
same,E (green foxtail) weedkilling efficacy grade,green foxtail [24],"5 (weed kill ratio 90% or more, (practically complete withering))"
same,F (barnyard grass) weedkilling efficacy grade,barnyard grass [25],"5 (weed kill ratio 90% or more, (practically complete withering))"
same,G (wild oat) weedkilling efficacy grade,wild oat [26],"5 (weed kill ratio 90% or more, (practically complete withering))"
same,H (black-grass) weedkilling efficacy grade,black-grass [27],"5 (weed kill ratio 90% or more, (practically complete withering))"
same,I (Italian ryegrass) weedkilling efficacy grade,Italian ryegrass [28],"5 (weed kill ratio 90% or more, (practically complete withering))"
same,J (common wind-grass) weedkilling efficacy grade,common wind-grass [29],"5 (weed kill ratio 90% or more, (practically complete withering))"
same,K (Indian mallow) weedkilling efficacy grade,Indian mallow [30],"5 (weed kill ratio 90% or more, (practically complete withering))"
same,L (redroot pigweed) weedkilling efficacy grade,redroot pigweed [31],"4 (weed kill ratio 70% or more, less than 90%)"
same,M (fig-leafed goosefoot) weedkilling efficacy grade,fig-leafed goosefoot [32],"5 (weed kill ratio 90% or more, (practically complete withering))"
same,N (chickweed) weedkilling efficacy grade,chickweed [33],"4 (weed kill ratio 70% or more, less than 90%)"
same,O (catchweed) weedkilling efficacy grade,catchweed,"4 (weed kill ratio 70% or more, less than 90%)"
same,b (directly sown rice) effect on crop grade,directly sown rice [34],"5 (weed kill ratio 90% or more, (practically complete withering))"
same,c (corn) effect on crop grade,corn [35],"4 (weed kill ratio 70% or more, less than 90%)"
same,d (soybean) effect on crop grade,soybean [36],"4 (weed kill ratio 70% or more, less than 90%)"
same,e (wheat) effect on crop grade,wheat [37],"3 (weed kill ratio 40% or more, less than 70%)"
same,f (beet) effect on crop grade,beet,"4 (weed kill ratio 70% or more, less than 90%)"
same,g (rapeseed) effect on crop grade,rapeseed [38],"4 (weed kill ratio 70% or more, less than 90%)"
